One block for each molecule: values may come before it.
Tests used:
[1] = tested on: PACE4 secretion; assay: PACE4 secretion assay with post-translational modification inhibitors; assay type: cell-based; settings: 24 h secretion in presence of agent
Source text: Immunoprecipitations on transiently transfected HEK293-FT cells were subjected to Sequential Window Acquisition of all Theoretical Mass Spectra (SWATH-MS)-based analysis (FIGS. 7F and G). Proteins identified in each pull-down were used to compare enrichment between the two different isoforms. Both isoforms pulled-down endoplasmic reticulum (ER) proteins with similar enrichment. The two isoforms had clearly different patterns when it came to endosomal compartments-associated proteins such as Arf6, Rab13 or Vps16 with PACE4-altCT pull-down displaying the higher enriched levels for these proteins. […] Considering the slight substitution caused by the splicing in the protein primary structure (FIG. 7A), PTM prediction tools were used to evaluate whether distinctive PTM motifs could be found in the alternative C-terminus compared to the FL one. The predicted PTM sites that scored the highest were S-palmitoylation, non-consensual S-farnesylation and S-geranylgeranylation on the Cys cluster added at the C-terminal extremity of the protein ([…]; see FIG. 8A).
For PACE4 secretion assays, cells were plated at equal densities in 6-well plates for 24 h in complete medium. 24 h later, the medium was replaced by the minimal volume required of fresh culture medium (600 μL without FBS) and the cells were either allowed to secrete for the indicated time (for secretion kinetics) or (for inhibitor treatments) allowed to secrete for an additional 24 h in the presence of the indicated concentrations of agents (heparin (Sandoz, Niirnberg, Germany), 2-bromopalmitate (Sigma Aldrich), FTI-277 (Sigma Aldrich), GGTI-2133 (Santa Cruz Biotechnology Inc., Santa Cruz, Calif., USA)

[2] = target: growth differentiation factor 15 (human) (UniProt Q99988); assay: cell-based or functional assay
[3] = tested on: GDF-15 in LNCaP cells; assay: GDF-15 cleavage and secretion analysis (western blot, ELISA); assay type: cell-based; settings: treated LNCaP cells, western blot array and ELISA
Source text: FIG. 10 illustrates the identification and validation of GDF-15 as a PACE4-specific substrate in prostate cancer cells, showing in (A) Western blots of candidate PC substrates across the knockdown, overexpressing and inhibitor-treated DU145 and LNCaP (B) lines; (C) expression of GDF-15 in DU145 and LNCaP cells showing that mature GDF-15 is secreted in the medium; (D) GDF-15 concentrations in DU145 and LNCaP conditioned medium determined by ELISA; (E) GDF-15 cleavage analysis in the LNCaP cells panel; (F) GDF-15 concentrations in the conditioned medium determined by ELISA; (G) GDF-15 cleavage analysis in LNCaP treated with either the ML-peptide or the cell impermeable analog (PEG8-ML); (H) GDF-15 spanning peptide cleavage by PACE4 and furin monitored by HPLC, cleavage site is underlined in the spanning peptide sequence, peptide identity was confirmed by MALDI-TOF upon collection of associated fractions; (I) Western blot analysis of paired adjacent non-cancerous tissues (ANCT) and prostate tissues (PCa); and (J) a blot showing various cancer grades is shown together with the densitometric analysis of 21 tissues pairs (n=6 (3+3), 7 (3+4), 6 (4+3), 2 (5+X) X being 3 and 4).
GDF-15 is known to supports both the proliferation and clonogenic potential of LNCaP cells, which is also in line with the observed phenotypes for both PACE4 knockdown and overexpressing cells. […]

[4] = tested on: ITGA6; assay: Western blot of PC substrate processing in inhibitor-treated DU145 and LNCaP lines; assay type: cell-based; settings: 50 μM, 48 h
Description: (§1) Western blotting were carried out of (i) cell lines silenced with shPACE4, shfurin and shPC7, (ii) cell lines stably expressing PACE4-FL and PACE4-altCT and (iii) cell lines treated with either the non-selective and irreversible PC inhibitor decanoyl-RVKR-chloromethylketone (CMK) or the PACE4 high affinity peptide inhibitor [dLeu]LLLRVK-amidinobenzylamide (Amba; dL-ML-Amba), herein after called C23 (Levesque et al., 2015, Oncotarget, 6: 3680-3693). In order to test the western blot arrays, known PC substrates were chosen, namely, the insulin-like growth factor 1 receptor (IGF1R) and integrin alpha-6 (ITGA6); two well-accepted furin substrates, were evaluated (FIGS. 10A and B) and E-cadherin. […] In contrast, the overexpression of PACE4-FL and PACE4-altCT did increase the processing of IGF1R and ITGA6 pro-forms, highlighting the cautionary interpretation that are needed in overexpression studies.
(§2) For substrates analysis, cell lysates were prepared by plating equal number of cells in p100 mm plates in complete medium. 24 h later, medium was replaced by 6 mL of serum-free fresh medium (with treatment if indicated; 50 μM of dL-ML-Amba or dec-RVKR-CMK (Bachem, Torrance, Calif.) and cells were further incubated 48 h. Medium was then collected and centrifuged at 1,000×g for 10 min at room temperature to remove any floating cells, aliquot of medium were then taken (800 μL), flash-frozen in liquid nitrogen, lyophilized overnight, restituted in 100 μL of Laemmli buffer: 8M urea (1:1) and boiled for 5 min until complete resuspension. 25 μL of concentrated medium were loaded on SDS-PAGE (equivalent of 200 μL of culture medium). Cells were carefully washed with PBS and lysed from cell pellet (resulting from 1,000×g centrifugation) using radio-immunoprecipitation assay buffer (RIPA) as described in (Couture et al., 2012). Samples were incubated 20 min on ice and further centrifuged 30 min at 13.000 rpm at 4° C. Protein concentration was determined by bicinchoninic acid assay (Pierce) to load 15 μg on polyacrylamide gels. […] was used as a loading control, for conditioned media, a Coomassie blue staining was routinely performed to control for protein loading.

[5] = tested on: IGF1R; assay: as above; assay type: cell-based; settings: 50 μM, 48 h
Description: as §1, §2

[6] = target: Multi-Leucine (ML) peptide

Sequence of growth differentiation factor 15 (human) (Q99988 195-308): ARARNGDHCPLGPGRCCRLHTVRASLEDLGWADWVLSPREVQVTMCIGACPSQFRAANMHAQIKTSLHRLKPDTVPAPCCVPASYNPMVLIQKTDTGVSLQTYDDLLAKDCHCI

Molecule: CCCCCCCCCCCCCCC(Br)C(=O)O (stereo not drawn) [2-BP, 2-bromopalmitate]
variation in secretion levels [1]: without any significant variation

Molecule: COC(=O)[C@H](CCSC)NC(=O)c1ccc(NC[C@@H](N)CS)cc1-c1ccccc1 [FTI-277]
variation in secretion levels [1]: without any significant variation

Molecule: CC(C)C[C@H](NC(=O)c1ccc(NCc2cnc[nH]2)cc1-c1cccc2ccccc12)C(=O)O [GGTI-2133]
variation in secretion levels [1]: without any significant variation

amount of secreted GDF-15 in conditioned medium (ELISA) (times higher than pLenti6 control cells) [2]: 5
Molecule: PACE4-FL (from UniProt P29122 150-969) (enzyme)

Molecule: [dLeu]LLLRVK-amidinobenzylamide [C23]
GDF-15 observed in the medium [3]: virtually no pro-GDF-15 could be observed | processing of ITGA6 pro-form [4]: no effect | processing of IGF1R pro-form [5]: no effect

Molecule: decanoyl-RVKR-chloromethylketone [CMK]
GDF-15 observed in the medium [3]: virtually no pro-GDF-15 could be observed | processing of ITGA6 pro-form [4]: prevented the processing | processing of IGF1R pro-form [5]: prevented the processing

B1: V5-tagged PACE4-FL (protein)
chain: QVRSDPQALYFNDPIWSNMWYLHCGDKNSRCRSEMNVQAAWKRGYTGKNVVVTILDDGIERNHPDLAPNYDSYASYDVNGNDYDPSPRYDASNENKHGTRCAGEVAASANNSYCIVGIAYNAKIGGIRMLDGDVTDVVEAKSLGIRPNYIDIYSASWGPDDDGKTVDGPGRLAKQAFEYGIKKGRQGLGSIFVWASGNGGREGDYCSCDGYTNSIYTISVSSATENGYKPWYLEECASTLATTYSSGAFYERKIVTTDLRQRCTDGHTGTSVSAPMVAGIIALALEANSQLTWRDVQHLLVKTSRPAHLKASDWKVNGAGHKVSHFYGFGLVDAEALVVEAKKWTAVPSQHMCVAASDKRPRSIPLVQVLRTTALTSACAEHSDQRVVYLEHVVVRTSISHPRRGDLQIYLVSPSGTKSQLLAKRLLDLSNEGFTNWEFMTVHCWGEKAEGQWTLEIQDLPSQVRNPEKQGKLKEWSLILYGTAEHPYHTFSAHQSRSRMLELSAPELEPPKAALSPSQVEVPEDEEDYTAQSTPGSANILQTSVCHPECGDKGCDGPNADQCLNCVHFSLGSVKTSRKCVSVCPLGYFGDTAARRCRRCHKGCETCSSRAATQCLSCRRGFYHHQEMNTCVTLCPAGFYADESQKNCLKCHPSCKKCVDEPEKCTVCKEGFSLARGSCIPDCEPGTYFDSELIRCGECHHTCGTCVGPGREECIHCAKNFHFHDWKCVPACGEGFYPEEMPGLPHKVCRRCDENCLSCAGSSRNCSRCKTGFTQLGTSCITNHTCSNADETFCEMVKSNRLCERKLFIQFCCRTCLLAG
enzymatic activity (cleavage of the fluorogenic substrate Pyr-Arg-Thr-Lys-Arg-methylcoumaryl-7-amide) [6]: both isoforms were still equally inhibited by the Multi-Leucine (ML) peptide

B2: V5-tagged PACE4-altCT (protein)
chain: QVRSDPQALYFNDPIWSNMWYLHCGDKNSRCRSEMNVQAAWKRGYTGKNVVVTILDDGIERNHPDLAPNYDSYASYDVNGNDYDPSPRYDASNENKHGTRCAGEVAASANNSYCIVGIAYNAKIGGIRMLDGDVTDVVEAKSLGIRPNYIDIYSASWGPDDDGKTVDGPGRLAKQAFEYGIKKGRQGLGSIFVWASGNGGREGDYCSCDGYTNSIYTISVSSATENGYKPWYLEECASTLATTYSSGAFYERKIVTTDLRQRCTDGHTGTSVSAPMVAGIIALALEANSQLTWRDVQHLLVKTSRPAHLKASDWKVNGAGHKVSHFYGFGLVDAEALVVEAKKWTAVPSQHMCVAASDKRPRSIPLVQVLRTTALTSACAEHSDQRVVYLEHVVVRTSISHPRRGDLQIYLVSPSGTKSQLLAKRLLDLSNEGFTNWEFMTVHCWGEKAEGQWTLEIQDLPSQVRNPEKQGKLKEWSLILYGTAEHPYHTFSAHQSRSRMLELSAPELEPPKAALSPSQVEVPEDEEDYTAQSTPGSANILQTSVCHPECGDKGCDGPNADQCLNCVHFSLGSVKTSRKCVSVCPLGYFGDTAARRCRRCHKGCETCSSRAATQCLSCRRGFYHHQEMNTCVTLCPAGFYADESQKNCLKCHPSCKKCVDEPEKCTVCKEGFSLARGSCIPDCEPGTYFDSELIRCGECHHTCGTCVGPGREECIHCAKNFHFHDWKCVPACGEGFYPEEMPGLPHKVCRRCDENCLSCAGSSRNCSRCKTGFTQLGTSCITNHTCSNGDIWQRLETFWVVTTGRMYSHPVGGGQECC
enzymatic activity (cleavage of the fluorogenic substrate Pyr-Arg-Thr-Lys-Arg-methylcoumaryl-7-amide) [6]: both isoforms were still equally inhibited by the Multi-Leucine (ML) peptide
